Reference: PubChem BioAssay (NCI)
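Five compound concentrations were applied to cells in 96-well plates for 48 hours; endpoints were derived by simple linear interpolation of the resulting dose-response curve. Here, GI50 denotes the concentration required for 50% inhibition of growth. The concentration for full growth arrest is given as TGI.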

System: RPMI-8226 leukemia
Assay: NCI-60 cell line screen, 48 h

Structure (SMILES)	GI50	TGI
C[C@@H]1C[C@@H]([C@@H](CC2CC(=O)NC(=O)C2)OC(=O)CC(=O)c2ccccc2)C(=O)[C@@H](C)C1	4.03 µM	> 100 µM
N=c1c2c(-c3ccccc3)c(-c3ccccc3)n(Cc3ccccc3)c2ncn1C1CCC(O)CC1 (centres undefined)	0.318 µM	4.12 µM
O=c1c(F)cn(Cc2ccc(C34CC5CC(CC(C5)C3)C4)c(O)c2)c(=O)n1Cc1ccc(C23CC4CC(CC(C4)C2)C3)c(O)c1	15.4 µM	60.4 µM
CCOC(=O)Nc1cc2c(c(N)n1)N=C(c1ccccc1)CO2	0.126 µM	–
CC1CC2CCCC(O)=C2C(=O)O1 (centres undefined)	–	> 100 µM
CC(C)(/C=C(\C#N)C(=O)N1CCC[C@@H](n2nc(-c3ccc(Oc4ccccc4)cc3F)c3c(N)ncnc32)C1)N1CCN(C2COC2)CC1	4.41 µM	33.1 µM
O=c1oc2ccc(-c3ccc(F)cc3F)cc2c(=O)n1-c1cccc(C(F)(F)F)c1	0.395 µM	3.26 µM
COC(=O)c1ccc2c(c1)C(=O)c1c-2n(CCCN=[N+]=[N-])c(=O)c2cc(OC)c(OC)cc12	> 100 µM	> 100 µM
O=C(Cc1ccc(F)c(Cl)c1)Nc1cc(C2(C(F)(F)F)CC2)nn1CC1CCCCC1	3.06 µM	9.43 µM
NC1CCN(Cc2ccccc2)CC1	> 100 µM	> 100 µM
Nc1ncn([C@@H]2O[C@H](CO)[C@@H](O)[C@H]2O)c(=O)n1	0.669 µM	> 100 µM
CC(=O)Nc1ccc(-c2csc(Nc3cccc(-c4csc(C)n4)c3)n2)cc1	0.789 µM	–
COc1ccc(C(=O)Nc2ccc(O)c(=O)cc2)cc1	–	> 100 µM

System: MCF7 breast
Assay: NCI-60 cell line screen, 48 h

Structure (SMILES)	GI50	TGI
CC1(C)OC2C(CO[Si](C)(C)C(C)(C)C)OC(n3c(I)c(C#C[Si](C)(C)C)c(=O)[nH]c3=O)C2O1 (centres undefined)	11.2 µM	24.3 µM
CN(C)CC[C@H](CSc1ccccc1)Nc1ccc(S(=O)(=O)NC(=O)c2ccc(N3CCN(Cc4ccccc4-c4ccc(Cl)cc4)CC3)cc2)cc1[N+](=O)[O-]	3 µM	> 41.3 µM
COc1ccc(-c2ccc(=O)oc2C#Cc2cc(OC)c(OC)c(OC)c2)cc1O	0.12 µM	> 100 µM
O=C(/C=C/c1ccc[nH]1)c1ccc(-n2ccc(C(F)(F)F)n2)cc1	> 82.2 µM	> 100 µM
O=C(c1ccco1)c1c(C(F)(F)F)nc2ccc(Cl)cc2[n+]1[O-]	> 100 µM	> 100 µM
Clc1cc2c(c(CSc3nc4ccccc4n4cccc34)c1)OCOC2	0.501 µM	> 100 µM
CN1CCN(c2ccc(Nc3cc(-c4cccc(-n5ccc6cc(C7CC7)cc(F)c6c5=O)c4CO)cn(C)c3=O)nc2)CC1	3.24 µM	18.6 µM
COc1ccc2nc3ccccc3c(NCc3ccc(F)cc3)c2c1	1.17 µM	3.52 µM
CN(C)C1CCN(C(=O)c2ccc(NC(=O)Nc3ccc(-c4nc(N5CCOCC5)c5cccn5n4)cc3)cc2)CC1	–	1.51 µM
COc1cc(N=Nc2ccc(O)c3ncccc23)c2ncccc2c1	2.18 µM	> 100 µM
CCOC(=O)N[C@H]1CCc2cc(OC)c(OC)c(OC)c2-c2ccc(SC)c(=O)cc21	–	> 100 µM
CCn1c(O)c(/C=N/NC(=O)C(C)c2ccc(CC(C)C)cc2)sc1=S (centres undefined)	0.346 µM	> 35.1 µM
C[C@@H]1C[C@@H]([C@@H](CC2CC(=O)NC(=O)C2)OC(=O)CC(=O)c2ccccc2)C(=O)[C@@H](C)C1	0.645 µM	> 100 µM
N=c1c2c(-c3ccccc3)c(-c3ccccc3)n(Cc3ccccc3)c2ncn1C1CCC(O)CC1 (centres undefined)	0.278 µM	2.36 µM
O=c1c(F)cn(Cc2ccc(C34CC5CC(CC(C5)C3)C4)c(O)c2)c(=O)n1Cc1ccc(C23CC4CC(CC(C4)C2)C3)c(O)c1	9.83 µM	30.6 µM
CCOC(=O)Nc1cc2c(c(N)n1)N=C(c1ccccc1)CO2	0.1 µM	21 µM
CC1CC2CCCC(O)=C2C(=O)O1 (centres undefined)	–	> 100 µM
CC(C)(/C=C(\C#N)C(=O)N1CCC[C@@H](n2nc(-c3ccc(Oc4ccccc4)cc3F)c3c(N)ncnc32)C1)N1CCN(C2COC2)CC1	2.57 µM	12.8 µM
O=c1oc2ccc(-c3ccc(F)cc3F)cc2c(=O)n1-c1cccc(C(F)(F)F)c1	3.22 µM	> 100 µM
COC(=O)c1ccc2c(c1)C(=O)c1c-2n(CCCN=[N+]=[N-])c(=O)c2cc(OC)c(OC)cc12	> 100 µM	> 100 µM
